Laboratory results from the supplement of paper PMC7394473.

Columns and labels:
Settings in all cases: 72 h
U2OS [1] = test: drug GRADE (percent of response due to cell death) (% (0-100)); higher = more death-driven response
Protocol: (§1)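 U2OS cells treated with full dose titrations of drug; live and dead cells counted by STACK microscopy (mKate2 nuclei, SYTOX Green) at 72 h, biological triplicates. GR and FV dose responses were fitted with 4-parameter logistic models (GR lower bound -1). GRADE (0-100) is the rescaled angle of a linear fit of FV versus GR at doses with GR >= 0, giving the percentage of the response due to cell death.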

U2OS [2] = test: GR50 (concentration giving GR = 0.5)
Protocol: as §1

U2OS [3] = test: normalized growth rate inhibition value (GR) relative to untreated cells (GR value (dimensionless, 1 = untreated growth)); higher = less growth inhibition
Protocol: (§2)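 U2OS::Nuc-mKate2 cells seeded in 96-well plates and treated with eight- to ten-point half-log or log dilutions of drug in the presence of 50 nM SYTOX Green. Live (mKate2+) and dead (SYTOX+) cells were counted by IncuCyte STACK live-cell microscopy at 72 h; biological triplicates. GR is the normalised growth-rate inhibition value (Hafner 2016; 1 = untreated growth, <0 = population shrinking). FV is live/(live+dead) cells, not normalised.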

U2OS [4] = test: fractional viability (live cells / total cells); higher = less cell death
Protocol: as §2

U2OS [5] = test: FV IC50 (concentration giving fractional viability 0.5); higher = less potent killing
Protocol: as §1

U2OS [6] = test: GRmin (fitted minimal GR value at highest effect) (GR value (dimensionless)); higher = less efficacious
Protocol: as §1

Structure (SMILES) | drug GRADE (U2OS [1]) | GR50 (U2OS [2]) [µM] | normalized growth rate inhibition value (U2OS [3]; 10 µM) | fractional viability (U2OS [4]; 10 µM) | FV IC50 (U2OS [5]) [µM] | normalized growth rate inhibition value (U2OS [3]; 0.0316 µM) | normalized growth rate inhibition value (U2OS [3]; 0.316 µM) | normalized growth rate inhibition value (U2OS [3]; 3.16 µM) | normalized growth rate inhibition value (U2OS [3]; 31.6 µM) | fractional viability (U2OS [4]; 0.0316 µM) | fractional viability (U2OS [4]; 0.316 µM) | fractional viability (U2OS [4]; 3.16 µM) | fractional viability (U2OS [4]; 31.6 µM) | GRmin (U2OS [6]) | normalized growth rate inhibition value (U2OS [3]; 0.01 µM) | normalized growth rate inhibition value (U2OS [3]; 0.1 µM) | normalized growth rate inhibition value (U2OS [3]; 1 µM) | fractional viability (U2OS [4]; 0.01 µM) | fractional viability (U2OS [4]; 0.1 µM) | fractional viability (U2OS [4]; 1 µM) | further results
CN(C)CC[C@H](CSc1ccccc1)Nc1ccc(S(=O)(=O)NC(=O)c2ccc(N3CCN(Cc4ccccc4-c4ccc(Cl)cc4)CC3)cc2)cc1[N+](=O)[O-] [ABT-737] | 65.6 | 2.13 | -0.162 | 0.407 | 6.86 | – | – | – | – | – | – | – | – | – | – | – | – | – | – | – | normalized growth rate inhibition value (U2OS [3]; 0.00100578 µM): 0.92; normalized growth rate inhibition value (U2OS [3]; 0.00317827 µM): 1.02; normalized growth rate inhibition value (U2OS [3]; 0.0100433 µM): 1.02; normalized growth rate inhibition value (U2OS [3]; 0.0317369 µM): 0.95; normalized growth rate inhibition value (U2OS [3]; 0.100289 µM): 0.94; normalized growth rate inhibition value (U2OS [3]; 0.316912 µM): 0.817; normalized growth rate inhibition value (U2OS [3]; 1.00144 µM): 0.744; normalized growth rate inhibition value (U2OS [3]; 3.16456 µM): 0.358; fractional viability (U2OS [4]; 0.00100578 µM): 0.986; fractional viability (U2OS [4]; 0.00317827 µM): 0.984; fractional viability (U2OS [4]; 0.0100433 µM): 0.983; fractional viability (U2OS [4]; 0.0317369 µM): 0.982; fractional viability (U2OS [4]; 0.100289 µM): 0.954; fractional viability (U2OS [4]; 0.316912 µM): 0.913; fractional viability (U2OS [4]; 1.00144 µM): 0.82; fractional viability (U2OS [4]; 3.16456 µM): 0.684
CC(C)[C@]12O[C@H]1[C@@H]1O[C@]13[C@]1(O[C@H]1C[C@H]1C4=C(CC[C@@]13C)C(=O)OC4)[C@@H]2O [Triptolide] | 8 | 0.00421 | – | – | 0.0112 | -0.197 | -0.249 | -0.267 | -0.258 | 0.18 | 0.155 | 0.154 | 0.159 | -0.262 | – | – | – | – | – | – | normalized growth rate inhibition value (U2OS [3]; 3.16 pM): 1.03; normalized growth rate inhibition value (U2OS [3]; 31.6 pM): 1.01; normalized growth rate inhibition value (U2OS [3]; 0.000316 µM): 0.928; normalized growth rate inhibition value (U2OS [3]; 0.00316 µM): 0.633; fractional viability (U2OS [4]; 3.16 pM): 0.981; fractional viability (U2OS [4]; 31.6 pM): 0.979; fractional viability (U2OS [4]; 0.000316 µM): 0.979; fractional viability (U2OS [4]; 0.00316 µM): 0.957
CC(C)Oc1ccc(-c2ccccc2)cc1-n1c(CN2CCN(C(=O)COc3ccc(Cl)cc3)CC2)nc2ccccc2c1=O [Erastin 2] | 24.1 | 0.231 | -0.627 | 0.0609 | 0.659 | 0.863 | 0.419 | -0.515 | -0.776 | 0.973 | 0.886 | 0.0768 | 0.0186 | -0.774 | 0.949 | 0.703 | -0.133 | 0.97 | 0.952 | 0.233 | –
CCN1CCN(Cc2ccc(Nc3ncc(F)c(-c4cc(F)c5nc(C)n(C(C)C)c5c4)n3)nc2)CC1 [Abemaciclib] | 17.3 | 0.299 | -0.928 | 0.0044 | 3.61 | – | – | – | – | – | – | – | – | – | – | – | – | – | – | – | normalized growth rate inhibition value (U2OS [3]; 0.00100578 µM): 1.03; normalized growth rate inhibition value (U2OS [3]; 0.00317827 µM): 0.796; normalized growth rate inhibition value (U2OS [3]; 0.0100433 µM): 0.854; normalized growth rate inhibition value (U2OS [3]; 0.0317369 µM): 0.834; normalized growth rate inhibition value (U2OS [3]; 0.100289 µM): 0.613; normalized growth rate inhibition value (U2OS [3]; 0.316912 µM): 0.583; normalized growth rate inhibition value (U2OS [3]; 1.00144 µM): -0.0282; normalized growth rate inhibition value (U2OS [3]; 3.16456 µM): -0.2; fractional viability (U2OS [4]; 0.00100578 µM): 0.99; fractional viability (U2OS [4]; 0.00317827 µM): 0.992; fractional viability (U2OS [4]; 0.0100433 µM): 0.993; fractional viability (U2OS [4]; 0.0317369 µM): 0.992; fractional viability (U2OS [4]; 0.100289 µM): 0.986; fractional viability (U2OS [4]; 0.316912 µM): 0.986; fractional viability (U2OS [4]; 1.00144 µM): 0.82; fractional viability (U2OS [4]; 3.16456 µM): 0.615
COc1cccc2c1C(=O)c1c(O)c3c(c(O)c1C2=O)C[C@@](O)(C(=O)CO)C[C@@H]3O[C@H]1C[C@H](N)[C@H](O)[C@H](C)O1 [Doxorubicin] | 3.78 | 0.0332 | -1 | 0 | 2.59 | – | – | – | – | – | – | – | – | -0.576 | – | – | – | – | – | – | normalized growth rate inhibition value (U2OS [3]; 0.00100578 µM): 0.879; normalized growth rate inhibition value (U2OS [3]; 0.00317827 µM): 1.06; normalized growth rate inhibition value (U2OS [3]; 0.0100433 µM): 0.832; normalized growth rate inhibition value (U2OS [3]; 0.0317369 µM): 0.368; normalized growth rate inhibition value (U2OS [3]; 0.100289 µM): 0.0816; normalized growth rate inhibition value (U2OS [3]; 0.316912 µM): 0.0197; normalized growth rate inhibition value (U2OS [3]; 1.00144 µM): -0.0749; normalized growth rate inhibition value (U2OS [3]; 3.16456 µM): -0.501; fractional viability (U2OS [4]; 0.00100578 µM): 0.987; fractional viability (U2OS [4]; 0.00317827 µM): 0.99; fractional viability (U2OS [4]; 0.0100433 µM): 0.989; fractional viability (U2OS [4]; 0.0317369 µM): 0.971; fractional viability (U2OS [4]; 0.100289 µM): 0.967; fractional viability (U2OS [4]; 0.316912 µM): 0.978; fractional viability (U2OS [4]; 1.00144 µM): 0.851; fractional viability (U2OS [4]; 3.16456 µM): 0.113
Nc1cc(C(F)(F)F)c(-c2cc(N3CCOCC3)nc(N3CCOCC3)n2)cn1 [Buparlisib] | 15.2 | 0.439 | -0.493 | 0.404 | 4.1 | – | – | – | – | – | – | – | – | -0.554 | – | – | – | – | – | – | normalized growth rate inhibition value (U2OS [3]; 0.00100578 µM): 0.914; normalized growth rate inhibition value (U2OS [3]; 0.00317827 µM): 0.956; normalized growth rate inhibition value (U2OS [3]; 0.0100433 µM): 0.959; normalized growth rate inhibition value (U2OS [3]; 0.0317369 µM): 0.899; normalized growth rate inhibition value (U2OS [3]; 0.100289 µM): 0.77; normalized growth rate inhibition value (U2OS [3]; 0.316912 µM): 0.704; normalized growth rate inhibition value (U2OS [3]; 1.00144 µM): 0.0802; normalized growth rate inhibition value (U2OS [3]; 3.16456 µM): -0.224; fractional viability (U2OS [4]; 0.00100578 µM): 0.986; fractional viability (U2OS [4]; 0.00317827 µM): 0.984; fractional viability (U2OS [4]; 0.0100433 µM): 0.986; fractional viability (U2OS [4]; 0.0317369 µM): 0.986; fractional viability (U2OS [4]; 0.100289 µM): 0.985; fractional viability (U2OS [4]; 0.316912 µM): 0.976; fractional viability (U2OS [4]; 1.00144 µM): 0.868; fractional viability (U2OS [4]; 3.16456 µM): 0.558
Nc1ccccc1NC(=O)c1ccc(CNC(=O)OCc2cccnc2)cc1 [Entinostat] | 42.5 | 2.84 | -0.304 | 0.201 | 5.8 | 0.969 | 0.883 | 0.504 | -0.726 | 0.97 | 0.964 | 0.814 | 0.0216 | -0.906 | 0.972 | 0.929 | 0.741 | 0.979 | 0.973 | 0.933 | –
COC(=O)c1ccc2c(c1)NC(=O)/C2=C(\Nc1ccc(N(C)C(=O)CN2CCN(C)CC2)cc1)c1ccccc1 [Bibf-1120] | 50.6 | 0.845 | -0.767 | 0.00465 | 1.48 | 1.04 | 0.813 | -0.468 | -0.767 | 0.975 | 0.947 | 0.092 | 0.00201 | -0.805 | 1.08 | 0.935 | 0.427 | 0.981 | 0.974 | 0.758 | –
Cc1ccc(C(=O)N(CCCN)[C@@H](c2oc3cc(Cl)ccc3c(=O)c2Cc2ccccc2)C(C)C)cc1 | 53.2 | – | -0.945 | 0.0037 | 2.85 | 0.0886 | 0.0837 | -0.182 | -0.883 | 0.808 | 0.827 | 0.436 | 0.000513 | -0.9 | -0.165 | -0.222 | -0.166 | 0.758 | 0.764 | 0.782 | normalized growth rate inhibition value (U2OS [3]; 0.00316 µM): 0.205; fractional viability (U2OS [4]; 0.00316 µM): 0.855
Cc1cc(Nc2ccc(NC(=O)c3ccc(Nc4ccnc5ccccc45)cc3)cc2)nc(N)n1 [SGI-1027] | 37.1 | 1.15 | -0.88 | 0.00115 | 1.62 | 1.02 | 0.948 | -0.651 | -0.717 | 0.977 | 0.975 | 0.0651 | 0.0226 | -0.799 | 0.952 | 0.932 | 0.642 | 0.975 | 0.98 | 0.87 | –
CC(C)C[C@H](NC(=O)[C@H](Cc1ccccc1)NC(=O)c1cnccn1)B(O)O [Bortezomib] | 17.4 | 0.0115 | -0.913 | 0.00121 | 0.0294 | -0.293 | -0.912 | -0.887 | -0.902 | 0.432 | 0.00177 | 0.00249 | 0.000942 | -0.899 | 0.572 | -0.811 | -0.874 | 0.919 | 0.00995 | 0.00348 | –
O=C(/C=C/c1cccc(S(=O)(=O)Nc2ccccc2)c1)NO [Belinostat] | 63.3 | 0.332 | -0.646 | 0.0497 | 0.93 | 0.975 | 0.498 | -0.527 | -0.72 | 0.972 | 0.878 | 0.096 | 0.0293 | -0.733 | 0.939 | 0.836 | -0.0168 | 0.969 | 0.947 | 0.466 | –
Cc1[nH]c2ccccc2c1CCNCc1ccc(/C=C/C(=O)NO)cc1 [Panobinostat] | 55.3 | 0.383 | -0.679 | 0.0583 | 1.67 | 1.05 | 0.61 | -0.45 | -0.831 | 0.984 | 0.933 | 0.271 | 0.00906 | -0.832 | 1.04 | 0.794 | 0.00935 | 0.983 | 0.979 | 0.685 | –
